For data set [1], the system named is Streptomyces sp. BG76. The data set is described as follows: Antibiotic sensibility of the strain. The class given is cell-based. The arrangement: key to Antibiotic sensibility: S: sensitive; R: resistant. Particulars: for Antibiotic sensibility: amount given with each antibiotic (30 μg, 300 U, 10 μg, 10 U, 250 μg).
Data set [2] can be described thus: Mineral phosphate solubilization test.
Data set [3] relates to Pythium ultimum (PU). The data set is described as follows: Antimicrobial bioassay, paper filter disk technique (agar diffusion). The format is cell-based. The method, then: (§1) The retention time of the main peaks D1 and D2 were 15.62 and 17.99 min, respectively. These fractions were checked again for both activities with mineral phosphate solubilization test and anti microbial bioassay, against ML, BS, PU and MR using the paper filter disk technique.
(§2) The purified Viridomycin (compound 1) was checked for anti microbial bioassay, against Micrococcus luteus ATCC 381 (ML), Bacillus subtilis ATCC 9524 (BS) and the phytopathogenic fungi Pythium ultimum (PU) and Mucor ramannianus NRRL 1829 (MR) using the paper filter disk technique.
On the technique in general: A growth-free zone around the sample is the usual read-out of agar diffusion tests.

In data set [4] the test system is Micrococcus luteus ATCC 381 (ML). The data set is described as above. The class given is cell-based. The method, then: as §1, §2
The subject of data set [5] is Bacillus subtilis ATCC 9524 (BS). The description is as above. The class given is cell-based. The method, then:
as §1, §2

In data set [6] the test system is Mucor ramannianus NRRL 1829 (MR). The data set is described as above. The format is cell-based. The method, then:
as §1, §2

Data set [7] in a line: Mineral phosphate solubilization test. This is another data set of the same source.
Data set [8] in a line: Solubility of the antibiotic. The format is physicochemical. Particulars: methanol and water.
[9] abbreviates: HPLC peak of fraction D, FIG. 4.
The mark [10] stands for this setting: purified Compound 1 at final concentration 98.5 mg·mL^−1.
Setting [11] is: filter disc i.d. 6 mm, c = 20 μg/mL, 20 μL/disc.

Where a SMILES comes first, the peptide text is derived from it. Bridges are numbered along the chain shown (N, C = ends). [ ]: non-standard residue; d: D form. The star is where a group is joined. Ileψ(thiazoline)Cys = CC[C@H](C)[C@H](N)C1=N[C@H](C(=O)*)CS1; dOrn = NCCC[C@@H](N)C(=O)O

As to `CC[C@H](C)[C@H](N)C1=N[C@H](C(=O)N[C@@H](CC(C)C)C(=O)N[C@H](CCC(=O)O)C(=O)N[C@H](C(=O)N[C@H]2CCCCNC(=O)[C@H](CC(N)=O)NC(=O)[C@@H](CC(=O)O)NC(=O)[C@H](Cc3cnc[nH]3)NC(=O)[C@@H](Cc3ccccc3)NC(=O)[C@H]([C@@H](C)CC)NC(=O)[C@@H](CCCN)NC2=O)[C@@H](C)CC)CS1` [Bacitracine] ({Ileψ(thiazoline)Cys}-L[dE]IK[dOrn]I[dF]H[dD]N; lactam 4-C), in data set [1], the “Sensitivity of the strain to the antibiotic (in words)” value (from here on “Sensitivity of the strain”) was “sensitive” and the Antibiotic sensibility result is listed as “S”.
In the same order, the values of `CC(=O)OCC1=C(C(=O)O)N2C(=O)[C@@H](NC(=O)Cc3cccs3)[C@H]2SC1` [Cefalotin] are “sensitive” and “S”.
As to `CO[C@@H]1[C@@H](OC(N)=O)[C@@H](O)[C@H](Oc2ccc3c(O)c(NC(=O)c4ccc(O)c(CC=C(C)C)c4)c(=O)oc3c2C)OC1(C)C` [Novobiocine], in data set [1], the “Sensitivity of the strain” value is “sensitive” and the Antibiotic sensibility result is on record as “S”.
`NS(N)(=O)=O` [Sulfamides]: in data set [1], the “Sensitivity of the strain” value is listed as “resistant” and the Antibiotic sensibility result is on record as “R”.
Regarding Gentamycine, in data set [1], the “Sensitivity of the strain” value is “sensitive” and the Antibiotic sensibility entry is listed as “S”.
Consider Polymyxin B, for which, in data set [1], the “Sensitivity of the strain” value is “sensitive” and the Antibiotic sensibility result was “S”.
As to “Tris (3-imino-4-oxo-cyclohexa-1,5-diene-carbaldehydro) iron (III) [Compound 1]”, the “Mineral phosphate solubilization activity (in words)” value in data set [2] (setting [9]) and in data set [7] (setting [9]) was “mineral phosphate solubilization activities” throughout. In addition, the “Concentration of solubilized Phosphate from RP” value in data set [2] (setting [10]) came out at 63.7 µg/mL. Further, the “Diameter of microbial growth inhibition zone” value in data set [3] (setting [11]) turned out to be 27 mm; in data set [4] (setting [11]), 45 mm; in data set [5] (setting [11]) it was 29 mm; in data set [6] (setting [11]) it was 38 mm. Also, the “Antimicrobial activity (in words)” value in data set [3] (on the standard media), in data set [4] (on the standard media), in data set [5] (on the standard media) and in data set [6] (on the standard media) was “inhibited” throughout. Further, in data set [7] (setting [10]), the “Concentration of solubilized Phosphate from TC” value turned out to be 135.2 µg/mL. The Solubility entry in data set [8] is “soluble in methanol and water”.

Source of the values: patent US9206212B2, “Actinomycete strain composition and its use” (CENTRE NATIONAL DE LA RECHERCHE SCIENTIFIQUE, priority 2011, dated 2015).
